Where two headings read alike, the source gives them in different places.
Legend:
[1] = test system: S. aureus ATCC 25923; experiment: MIC, agar incorporation method; format: cell-based, Staphylococcus aureus
[2] = test system: S. aureus (MRSA) 15187; experiment: MIC, agar incorporation method; format: cell-based, Staphylococcus aureus
[3] = test system: S. aureus (MRSA) 21299; experiment: MIC, agar incorporation method; format: cell-based, Staphylococcus aureus
[4] = test system: S. aureus (MRSA 33) Cipro R; experiment: MIC, agar incorporation method; format: cell-based, Staphylococcus aureus
[5] = test system: S. epidermidis ATCC 12228; experiment: MIC, agar incorporation method; format: cell-based, Staphylococcus epidermidis
[6] = test system: S. epidermidis (MRSE) 23760; experiment: MIC, agar incorporation method; format: cell-based, Staphylococcus epidermidis
[7] = test system: S. epidermidis 823; experiment: MIC, agar incorporation method; format: cell-based, Staphylococcus epidermidis
[8] = test system: E. faecium 6A (VRE); experiment: MIC, agar incorporation method; format: cell-based, Enterococcus faecium
[9] = test system: E. durans 581; experiment: MIC, agar incorporation method; format: cell-based
[10] = test system: E. coli 25922; experiment: MIC, agar incorporation method; format: cell-based
[11] = test system: K. oxytoca 49131; experiment: MIC, agar incorporation method; format: cell-based
[12] = test system: Acinetobacter 9956; experiment: MIC, agar incorporation method; format: cell-based
[13] = test system: S. pneumoniae AB4; experiment: MIC, agar incorporation method; format: cell-based, Streptococcus pneumoniae
[14] = test system: S. pneumoniae AB 10; experiment: MIC, agar incorporation method; format: cell-based, Streptococcus pneumoniae
[15] = test system: S. pneumoniae AB 31; experiment: MIC, agar incorporation method; format: cell-based, Streptococcus pneumoniae
[16] = test system: S. pneumoniae AB 14; experiment: MIC, agar incorporation method; format: cell-based, Streptococcus pneumoniae
[17] = test system: S. pneumoniae 217; experiment: MIC, agar incorporation method; format: cell-based, Streptococcus pneumoniae
[18] = test system: S. pneumoniae AB 16; experiment: MIC, agar incorporation method; format: cell-based, Streptococcus pneumoniae
[19] = test system: S. pneumoniae AB 21; experiment: MIC, agar incorporation method; format: cell-based, Streptococcus pneumoniae
[20] = test system: S. pneumoniae AB 23; experiment: MIC, agar incorporation method; format: cell-based, Streptococcus pneumoniae
[21] = test system: S. pneumoniae ATCC 6303; experiment: MIC, agar incorporation method; format: cell-based, Streptococcus pneumoniae
[22] = test system: S. pyogenes 20361; experiment: MIC, agar incorporation method; format: cell-based, Streptococcus pyogenes
[23] = test system: S. pneumoniae 1251; experiment: MIC, agar incorporation method; format: cell-based, Streptococcus pneumoniae
[24] = test system: Moraxella M1; experiment: MIC, agar incorporation method; format: cell-based
[25] = test system: Moraxella cata. M2; experiment: MIC, agar incorporation method; format: cell-based
[26] = test system: H. influenzae R; experiment: MIC against Haemophilus strains; format: cell-based; conditions: s. No. 4, H. influenzae R
[27] = test system: H. influenzae P318; experiment: MIC against Haemophilus strains; format: cell-based; conditions: s. No. 10, H. influenzae P318

Measured: MIC

(S)—N-[[3-[-3-Fluoro-4-[(5-nitro-2-thienyl)-3-methyl-1-piperazinyl]phenyl]-2-oxo-5-oxazolidinyl]methyl]acetamide [Compound No. 10]
0.5 µg/mL: [6]; S. No. 11, S. epidermidis (MRSE) 23760 | [7]; S. No. 12, S. epidermidis 823 | [9]; S. No. 24, E. durans 581 | [13]; S. No. 33, S. pneumoniae AB4 | [15]; S. No. 36, S. pneumoniae AB 31 | [16]; S. No. 37, S. pneumoniae AB 14 | [17]; S. No. 38, S. pneumoniae 217 | [18]; S. No. 39, S. pneumoniae AB 16 | [19]; S. No. 41, S. pneumoniae AB 21 | [20]; S. No. 43, S. pneumoniae AB 23 | [21]; S. No. 50, S. pneumoniae ATCC 6303 | [22]; S. No. 53, S. pyogenes 20361 | [23]; S. No. 54, S. pneumoniae 1251
0.25 µg/mL: [5]; S. No. 10, S. epidermidis ATCC 12228 | [14]; S. No. 35, S. pneumoniae AB 10
>8 µg/mL: [10]; S. No. 25, E. coli 25922 | [11]; S. No. 27, K. oxytoca 49131 | [12]; S. No. 30, Acinetobacter 9956
>16 µg/mL: [26] | [27]
1 µg/mL: [1]; S. No. 1, organism cell empty | [2]; S. No. 4, S. aureus (MRSA) 15187 | [3]; S. No. 5, S. aureus (MRSA) 21299 | [4]; S. No. 7, S. aureus (MRSA 33) Cipro R | [8]; S. No. 21, E. faecium 6A (VRE)
2 µg/mL: [24]; S. No. 58, Moraxella M1 | [25]; S. No. 59, Moraxella cata. M2

CC(=O)NC[C@H]1CN(c2ccc(N3CCN(c4ccc([N+](=O)[O-])o4)CC3)c(F)c2)C(=O)O1 [Compound No. 4, (S)—N-[[3-[3-Fluoro-4-[4-(5-nitro-2-furyl)-1-piperazinyl]phenyl]-2-oxo-5-oxazolidinyl]methyl]acetamide]
8 µg/mL: [2]; Staphylococcus aureus, S. No. 4, S. aureus (MRSA) 15187, read-out: MIC | [3]; Staphylococcus aureus, S. No. 5, S. aureus (MRSA) 21299, read-out: MIC | [4]; Staphylococcus aureus, S. No. 7, S. aureus (MRSA 33) Cipro R, read-out: MIC | [8]; Enterococcus faecium, S. No. 21, E. faecium 6A (VRE), read-out: MIC | [13]; Streptococcus pneumoniae, S. No. 33, S. pneumoniae AB4, read-out: MIC | [15]; Streptococcus pneumoniae, AB31, S. No. 36, S. pneumoniae AB 31, read-out: MIC | [18]; Streptococcus pneumoniae, AB16, S. No. 39, S. pneumoniae AB 16, read-out: MIC | [19]; Streptococcus pneumoniae, AB21, S. No. 41, S. pneumoniae AB 21, read-out: MIC | [20]; Streptococcus pneumoniae, AB23, S. No. 43, S. pneumoniae AB 23, read-out: MIC
16 µg/mL: [1]; Staphylococcus aureus, ATCC25923, S. No. 1, organism cell empty, read-out: MIC
> 16 µg/mL: [10]; Escherichia coli, S. No. 25, E. coli 25922, read-out: MIC | [11]; Klebsiella oxytoca, S. No. 27, K. oxytoca 49131, read-out: MIC | [12]; S. No. 30, Acinetobacter 9956, read-out: MIC | [24]; S. No. 58, Moraxella M1, read-out: MIC | [25]; S. No. 59, Moraxella cata. M2, read-out: MIC
4 µg/mL: [5]; Staphylococcus epidermidis, ATCC12228, S. No. 10, S. epidermidis ATCC 12228, read-out: MIC | [6]; Staphylococcus epidermidis, S. No. 11, S. epidermidis (MRSE) 23760, read-out: MIC | [7]; Staphylococcus epidermidis, S. No. 12, S. epidermidis 823, read-out: MIC | [9]; Enterococcus durans, S. No. 24, E. durans 581, read-out: MIC | [14]; Streptococcus pneumoniae, AB10, S. No. 35, S. pneumoniae AB 10, read-out: MIC | [17]; Streptococcus pneumoniae, S. No. 38, S. pneumoniae 217, read-out: MIC | [21]; Streptococcus pneumoniae, ATCC6303, S. No. 50, S. pneumoniae ATCC 6303, read-out: MIC | [22]; Streptococcus pyogenes, S. No. 53, S. pyogenes 20361, read-out: MIC | [23]; Streptococcus pneumoniae, S. No. 54, S. pneumoniae 1251, read-out: MIC
2 µg/mL: [16]; Streptococcus pneumoniae, AB14, S. No. 37, S. pneumoniae AB 14, read-out: MIC

CN[C@H](CC(C)C)C(=O)N[C@H]1C(=O)N[C@@H](CC(N)=O)C(=O)N[C@H]2C(=O)N[C@H]3C(=O)N[C@H](C(=O)N[C@H](C(=O)O)c4cc(O)cc(O)c4-c4cc3ccc4O)[C@H](O)c3ccc(c(Cl)c3)Oc3cc2cc(c3O[C@@H]2O[C@H](CO)[C@@H](O)[C@H](O)[C@H]2O[C@H]2C[C@](C)(N)[C@H](O)[C@H](C)O2)Oc2ccc(cc2Cl)[C@H]1O [Vancomycin, reference compound]
> 8 µg/mL: [24]; Moraxella, M1 | [25]; Moraxella, CATA.M2
0.5 µg/mL: [2]; Staphylococcus aureus, MRSA | [3]; Staphylococcus aureus, MRSA | [4]; Staphylococcus aureus, MRSA | [17]; Streptococcus pneumoniae, 217 | [22]; Streptococcus pyogenes, 20361
> 16 µg/mL: [8]; Enterococcus faecium, VRE | [9]; Enterococcus durans, 581 | [10]; Escherichia coli, 25922 | [11]; Klebsiella oxytoca, 49131 | [12]; Acinetobacter, 9956
0.25 µg/mL: [13]; Streptococcus pneumoniae, AB4 | [14]; Streptococcus pneumoniae, AB10 | [15]; Streptococcus pneumoniae, AB31 | [16]; Streptococcus pneumoniae, AB14 | [18]; Streptococcus pneumoniae, AB16 | [19]; Streptococcus pneumoniae, AB21 | [20]; Streptococcus pneumoniae, AB23 | [21]; Streptococcus pneumoniae, ATCC6303 | [23]; Streptococcus pneumoniae, 1251
2 µg/mL: [6]; Staphylococcus epidermidis, MRSE | [7]; Staphylococcus epidermidis, 823
1 µg/mL: [1]; Staphylococcus aureus, ATCC25923 | [5]; Staphylococcus epidermidis, ATCC12228
